Experimental data from ChEMBL document CHEMBL2074297, “Identification of phalloidin uptake systems of rat and human liver” (Biochim Biophys Acta, 2004).
Starred links: 1 amine or outer side, 2 acyl side, 3 side chain; linkers in the order of their positions; H or OH if unused. Positions of bridges follow the written chain, without caps; N, C: chain ends. Non-standard residues stand in square brackets, D forms with d. Residues, ends and D or L forms follow the SMILES beside them. Trp(2-yl) = O=C([C@H](Cc1c([*:3])[nH]c2ccccc12)N[*:1])[*:2]; Leu(4R-OH,5-OH) = C[C@](O)(CO)C[C@H](N)C(=O)O; cisHyp = O=C(O)[C@@H]1C[C@H](O)CN1

Experiments:
[1] = molecular target: T1, Solute carrier organic anion transporter family member 1A4 (Rattus norvegicus, UniProt O35913); assay: (§1) TP_TRANSPORTER: inhibition of taurocholate uptake (taurocholate: 10 uM) in Xenopus laevis oocytes; format: functional, cell-based; details: oocyte
T1 sequence (O35913 whole entry): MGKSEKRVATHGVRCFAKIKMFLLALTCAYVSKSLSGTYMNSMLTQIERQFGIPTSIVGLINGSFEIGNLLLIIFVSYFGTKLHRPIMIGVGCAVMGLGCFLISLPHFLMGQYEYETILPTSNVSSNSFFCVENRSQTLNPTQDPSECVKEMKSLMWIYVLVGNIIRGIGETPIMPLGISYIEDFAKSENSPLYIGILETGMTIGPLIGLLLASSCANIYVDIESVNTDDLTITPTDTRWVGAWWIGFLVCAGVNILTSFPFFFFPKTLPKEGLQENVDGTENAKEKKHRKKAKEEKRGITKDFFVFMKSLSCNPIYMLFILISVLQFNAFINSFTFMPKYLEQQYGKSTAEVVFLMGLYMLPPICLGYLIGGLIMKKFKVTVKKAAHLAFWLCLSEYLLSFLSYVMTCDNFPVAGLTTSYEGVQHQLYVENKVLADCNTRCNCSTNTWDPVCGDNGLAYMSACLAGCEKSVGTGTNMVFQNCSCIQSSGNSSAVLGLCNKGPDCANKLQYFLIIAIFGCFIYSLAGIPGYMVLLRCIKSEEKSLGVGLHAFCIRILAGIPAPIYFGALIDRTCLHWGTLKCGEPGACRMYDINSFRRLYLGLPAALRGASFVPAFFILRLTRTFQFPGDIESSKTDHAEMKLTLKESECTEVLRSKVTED

[2] = molecular target: T2, Solute carrier organic anion transporter family member 1B2 (Rattus norvegicus, UniProt Q9QZX8); assay: as §1; format: functional, cell-based; details: oocyte
T2 sequence (Q9QZX8 whole entry): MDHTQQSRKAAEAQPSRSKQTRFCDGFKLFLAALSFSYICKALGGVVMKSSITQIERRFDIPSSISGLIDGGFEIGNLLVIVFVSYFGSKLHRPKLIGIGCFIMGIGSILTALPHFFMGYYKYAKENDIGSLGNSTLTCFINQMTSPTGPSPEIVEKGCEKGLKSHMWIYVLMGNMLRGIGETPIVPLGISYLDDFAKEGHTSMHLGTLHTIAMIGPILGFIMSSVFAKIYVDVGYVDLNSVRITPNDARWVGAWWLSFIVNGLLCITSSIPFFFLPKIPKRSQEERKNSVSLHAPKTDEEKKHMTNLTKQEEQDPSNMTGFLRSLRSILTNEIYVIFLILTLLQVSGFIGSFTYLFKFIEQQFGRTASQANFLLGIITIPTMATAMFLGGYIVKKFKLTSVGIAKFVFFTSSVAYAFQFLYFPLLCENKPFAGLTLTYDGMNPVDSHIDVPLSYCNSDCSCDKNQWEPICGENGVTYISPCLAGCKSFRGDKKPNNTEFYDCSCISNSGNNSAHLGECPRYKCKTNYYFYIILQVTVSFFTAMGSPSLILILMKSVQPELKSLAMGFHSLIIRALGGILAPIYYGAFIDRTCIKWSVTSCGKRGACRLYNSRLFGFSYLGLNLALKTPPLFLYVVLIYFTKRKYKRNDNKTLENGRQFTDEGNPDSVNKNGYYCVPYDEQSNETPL

[3] = molecular target: T3, Solute carrier organic anion transporter family member 1A1 (Rattus norvegicus, UniProt P46720); assay: as §1; format: functional, cell-based; details: oocyte
T3 sequence (P46720 whole entry): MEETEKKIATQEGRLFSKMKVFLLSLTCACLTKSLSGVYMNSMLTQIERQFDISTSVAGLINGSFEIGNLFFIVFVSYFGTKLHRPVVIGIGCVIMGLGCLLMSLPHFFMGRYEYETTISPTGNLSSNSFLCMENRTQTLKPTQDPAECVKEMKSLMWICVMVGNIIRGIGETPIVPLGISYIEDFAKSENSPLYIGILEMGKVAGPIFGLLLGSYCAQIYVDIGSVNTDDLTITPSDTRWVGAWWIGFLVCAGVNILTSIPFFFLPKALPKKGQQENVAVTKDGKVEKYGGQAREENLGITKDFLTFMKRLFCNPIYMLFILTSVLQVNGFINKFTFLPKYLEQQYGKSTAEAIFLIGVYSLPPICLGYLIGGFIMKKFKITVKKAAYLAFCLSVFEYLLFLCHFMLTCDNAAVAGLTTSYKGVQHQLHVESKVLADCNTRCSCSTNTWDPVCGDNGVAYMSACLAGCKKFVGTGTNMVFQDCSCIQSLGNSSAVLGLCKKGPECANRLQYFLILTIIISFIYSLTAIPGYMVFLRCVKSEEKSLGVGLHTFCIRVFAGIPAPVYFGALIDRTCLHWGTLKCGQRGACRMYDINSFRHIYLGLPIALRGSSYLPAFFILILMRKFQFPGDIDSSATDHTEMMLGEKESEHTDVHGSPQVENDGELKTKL

[4] = molecular target: T4, Hepatic sodium/bile acid cotransporter (Rattus norvegicus, UniProt P26435); assay: as §1; format: functional, cell-based; details: oocyte
T4 sequence (P26435 whole entry): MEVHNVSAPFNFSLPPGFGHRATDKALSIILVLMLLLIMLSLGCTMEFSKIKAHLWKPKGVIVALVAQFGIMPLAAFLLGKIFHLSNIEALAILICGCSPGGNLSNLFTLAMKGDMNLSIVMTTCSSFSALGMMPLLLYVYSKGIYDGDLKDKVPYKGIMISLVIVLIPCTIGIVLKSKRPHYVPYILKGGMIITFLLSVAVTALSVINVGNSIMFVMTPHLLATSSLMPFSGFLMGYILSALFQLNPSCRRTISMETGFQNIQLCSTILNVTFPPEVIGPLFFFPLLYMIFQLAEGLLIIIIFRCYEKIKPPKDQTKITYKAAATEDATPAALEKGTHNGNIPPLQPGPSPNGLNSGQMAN

[5] = molecular target: T5, Solute carrier organic anion transporter family member 1B2 (OATP1B2) (Rattus norvegicus, UniProt Q9QZX8); assay: (§2) TP_TRANSPORTER: uptake in Xenopus laevis oocytes; format: functional, cell-based, Oocyte; details: Xenopus laevis oocytes expressing the transporter
T5 sequence (Q9QZX8 whole entry): T2 sequence (Q9QZX8 whole entry)

[6] = molecular target: T6, Solute carrier organic anion transporter family member 1B1 (OATP1B1) (Homo sapiens, UniProt Q9Y6L6); assay: as §2; format: functional, cell-based, Oocyte; details: Xenopus laevis oocytes expressing the transporter
T6 sequence (Q9Y6L6 whole entry): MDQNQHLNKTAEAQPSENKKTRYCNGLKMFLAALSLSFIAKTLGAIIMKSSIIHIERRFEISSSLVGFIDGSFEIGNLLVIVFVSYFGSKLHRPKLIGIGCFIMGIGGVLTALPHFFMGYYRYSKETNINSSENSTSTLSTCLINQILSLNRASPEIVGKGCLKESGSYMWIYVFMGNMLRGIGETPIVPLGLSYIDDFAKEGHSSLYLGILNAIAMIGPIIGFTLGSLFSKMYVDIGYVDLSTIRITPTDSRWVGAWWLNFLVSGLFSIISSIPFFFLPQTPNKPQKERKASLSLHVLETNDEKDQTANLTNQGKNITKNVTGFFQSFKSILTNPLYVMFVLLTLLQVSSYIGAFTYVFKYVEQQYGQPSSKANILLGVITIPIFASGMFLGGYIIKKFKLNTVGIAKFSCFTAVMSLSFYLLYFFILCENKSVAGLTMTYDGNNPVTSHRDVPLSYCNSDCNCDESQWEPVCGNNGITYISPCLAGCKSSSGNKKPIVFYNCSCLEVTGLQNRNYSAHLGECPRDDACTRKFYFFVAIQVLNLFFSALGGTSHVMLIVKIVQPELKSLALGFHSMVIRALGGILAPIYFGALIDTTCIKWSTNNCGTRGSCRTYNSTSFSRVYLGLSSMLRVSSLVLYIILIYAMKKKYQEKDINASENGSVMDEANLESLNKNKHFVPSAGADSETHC

[7] = molecular target: T7, Solute carrier organic anion transporter family member 1B3 (OATP1B3) (Homo sapiens, UniProt Q9NPD5); assay: as §2; format: functional, cell-based, Oocyte; details: Xenopus laevis oocytes expressing the transporter
T7 sequence (Q9NPD5 whole entry): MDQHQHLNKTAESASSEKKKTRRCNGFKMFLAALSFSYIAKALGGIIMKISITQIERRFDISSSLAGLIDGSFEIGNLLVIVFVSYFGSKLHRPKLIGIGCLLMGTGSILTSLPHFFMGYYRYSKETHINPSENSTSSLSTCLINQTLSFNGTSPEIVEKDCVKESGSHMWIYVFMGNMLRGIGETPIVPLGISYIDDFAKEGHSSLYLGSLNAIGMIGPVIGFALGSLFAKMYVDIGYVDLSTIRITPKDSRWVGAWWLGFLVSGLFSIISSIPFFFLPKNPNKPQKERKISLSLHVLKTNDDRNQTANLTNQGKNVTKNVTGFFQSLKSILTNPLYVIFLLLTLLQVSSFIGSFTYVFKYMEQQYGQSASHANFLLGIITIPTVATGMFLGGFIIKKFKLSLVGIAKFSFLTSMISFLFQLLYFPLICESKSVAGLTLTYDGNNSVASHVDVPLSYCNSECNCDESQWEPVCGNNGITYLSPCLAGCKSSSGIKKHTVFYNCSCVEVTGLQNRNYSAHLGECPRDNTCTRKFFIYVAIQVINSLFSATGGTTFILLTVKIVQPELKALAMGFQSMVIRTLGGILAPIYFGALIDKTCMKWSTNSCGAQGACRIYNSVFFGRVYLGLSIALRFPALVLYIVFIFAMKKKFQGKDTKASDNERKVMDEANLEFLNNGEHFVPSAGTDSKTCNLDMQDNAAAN

[8] = molecular target: T1, Solute carrier organic anion transporter family member 1A4; assay: as §2; format: functional, cell-based; details: oocyte
[9] = molecular target: T3, Solute carrier organic anion transporter family member 1A1; assay: as §2; format: functional, cell-based; details: oocyte
[10] = molecular target: T8, Solute carrier organic anion transporter family member 2B1 (Homo sapiens, UniProt O94956); assay: as §2; format: functional, cell-based; details: oocyte
T8 sequence (O94956 whole entry): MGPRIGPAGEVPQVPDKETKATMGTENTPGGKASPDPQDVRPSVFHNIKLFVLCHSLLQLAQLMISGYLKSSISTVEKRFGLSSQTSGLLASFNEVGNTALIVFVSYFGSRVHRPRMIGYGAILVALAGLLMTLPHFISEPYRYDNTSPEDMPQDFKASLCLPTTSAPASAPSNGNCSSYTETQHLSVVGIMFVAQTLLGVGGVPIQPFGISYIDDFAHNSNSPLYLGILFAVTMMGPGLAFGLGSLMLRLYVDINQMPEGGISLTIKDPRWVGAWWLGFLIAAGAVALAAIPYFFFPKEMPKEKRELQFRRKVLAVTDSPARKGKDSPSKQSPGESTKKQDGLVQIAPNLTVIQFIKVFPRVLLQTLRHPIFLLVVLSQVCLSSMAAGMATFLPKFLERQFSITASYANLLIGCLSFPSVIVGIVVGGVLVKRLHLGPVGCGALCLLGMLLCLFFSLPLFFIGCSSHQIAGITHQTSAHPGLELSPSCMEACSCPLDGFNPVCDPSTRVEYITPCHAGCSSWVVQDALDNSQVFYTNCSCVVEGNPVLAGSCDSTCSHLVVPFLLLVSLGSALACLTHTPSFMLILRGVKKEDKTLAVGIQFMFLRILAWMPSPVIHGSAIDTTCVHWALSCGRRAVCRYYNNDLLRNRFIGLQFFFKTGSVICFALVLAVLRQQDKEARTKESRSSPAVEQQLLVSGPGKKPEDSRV

[11] = molecular target: T4, Hepatic sodium/bile acid cotransporter; assay: as §2; format: functional, cell-based; details: oocyte

| Compound | Activity [1] | Activity [2] | Activity [3] | Activity [4] | Km [5] [µM] | Km [6] [µM] | Km [7] [µM] | Activity [8] | Activity [9] | Activity [10] | Activity [11] |
| --- | --- | --- | --- | --- | --- | --- | --- | --- | --- | --- | --- |
| C[C@@H]1NC(=O)[C@H](C[C@@](C)(O)CO)NC(=O)[C@@H]2Cc3c([nH]c4ccccc34)SC[C@H](NC(=O)[C@@H]([C@H](C)O)NC1=O)C(=O)N1C[C@@H](O)C[C@H]1C(=O)N[C@@H](C)C(=O)N2 [PHALLOIDIN] (cyclo(A[dT]C[cisHyp]A[Trp(2-yl)][Leu(4R-OH,5-OH)]); thioether 3-6) | is not an inhibitor [-] | inhibitor [+] | is not an inhibitor [-] | is not an inhibitor [-] | – | – | – | – | – | – | – |
| CC(O)C[C@@H]1NC(=O)[C@@H]2Cc3c([nH]c4ccccc34)SC[C@@H](NC(=O)[C@H]([C@@H](C)O)NC(=O)[C@H](C)NC1=O)C(=O)N1C[C@H](O)C[C@H]1C(=O)N[C@@H](C)C(=O)N2 (stereo partly specified) [DEMETHYLPHALLOIN] | – | – | – | – | 5.7 | 17 | 7.5 | is not a substrate [-] | is not a substrate [-] | is not a substrate [-] | is not a substrate [-] |
